# Results from patent US9820487B2, “Abscinazole” (NATIONAL UNIVERSITY CORPORATION SHIZUOKA UNIVERSITY, priority 2014, dated 2017).
# Legend:
# [1] = target: T1, ent-kaurene oxidase CYP701A6 (Oryza sativa subsp. japonica, UniProt Q5Z5R4); assay: Ent-kaurene oxidase CYP701A6 inhibition test; format: biochemical; conditions: CYP701A6 + NADPH-P450 reductase ATR2, substrate ent-kaurene, 30° C. 30 minutes; IC50 calculated from two concentrations
# T1 sequence (Q5Z5R4 1-505): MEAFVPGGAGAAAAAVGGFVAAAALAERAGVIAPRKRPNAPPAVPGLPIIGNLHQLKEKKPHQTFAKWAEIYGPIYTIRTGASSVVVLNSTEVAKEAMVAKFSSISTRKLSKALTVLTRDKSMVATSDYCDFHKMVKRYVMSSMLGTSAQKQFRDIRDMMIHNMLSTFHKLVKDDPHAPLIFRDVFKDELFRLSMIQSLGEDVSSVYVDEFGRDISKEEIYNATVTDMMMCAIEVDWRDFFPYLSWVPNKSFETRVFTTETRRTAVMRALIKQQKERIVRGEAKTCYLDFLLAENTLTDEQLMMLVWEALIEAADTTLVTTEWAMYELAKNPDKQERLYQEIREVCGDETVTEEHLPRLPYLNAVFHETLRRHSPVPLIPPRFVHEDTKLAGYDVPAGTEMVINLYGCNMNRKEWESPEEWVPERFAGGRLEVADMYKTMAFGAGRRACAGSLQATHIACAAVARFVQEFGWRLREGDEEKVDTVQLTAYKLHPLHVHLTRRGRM
# Description: To a 1.5 mL microtube, 8 μL of an aqueous solution of 500 μM ent-kaurene as a substrate in 45% cyclodextrin and 8μL of a solution of the sample in dimethylformamide were put. 10 μL of 2.32 μM ent-kaurene oxidase CYP701A6 and 10 μL of 4.6 unit/mL NADPH-P450 reductase ATR2, heated at 30° C. for 5 minutes in advance, were added thereto. 304 μL of ultra-pure water, 40 μL of 500 mM KPB and 20 μL of an aqueous solution of 20 mM NADPH, heated at 30° C. for 10 minutes in advance, were added thereto thereby starting the enzyme reaction. The reaction was carried out at 30° C. for 30 minutes at a rotation speed of 1000 rpm and 100 μL of 1 M hydrochloric acid was added thereto thereby terminating the reaction. 5 μL of 10 μM abietic acid as the internal standard was added thereto, and the solution was extracted with 400 μL of ethyl acetate. The resultant was dried over sodium sulfate and subsequently concentrated under reduced pressure. 50 μL of methanol and 5 μL of 2 M trimethyl silyldiazomethane were added thereto to methylate carboxylic acid and the resultant was thy-solidified using nitrogen. The solidified product was dissolved in 150 μL of hexane and 1 μL of the resultant solution was subjected to a GC-MS analysis to detect the enzyme metabolite ent-kaurene acid. The CYP701A6 inhibition rate of the samples was calculated in accordance with the following formula (4). Note that the peak area of ent-kaurene acid was calculated from the peak area of m/z 273 and that ent-kaurene acid was identified from the area ratio of m/z 257, 213. The peak area of abietic acid was calculated from the area of m/z 256, and abietic acid was identified from the area ratio of m/z 316. Note that dimethylformamide was used for the control in place of the sample solution. Each sample was tested with two different concentrations to act late the 50% inhibition concentration (IC50) based on the enzyme inhibition rates thereof.
# Enzyme inhibition rate (%)={1-(Ent-kaurene acid peak area of each sample/Abietic acid peak area of each sample/(Ent-kaurene acid peak area of control/Abietic acid peak area of control }×100 . . . (4)
# [2] = target: T2, abscisic acid 8′-hydroxylase CYP707A3 (Arabidopsis thaliana, UniProt Q9FH76); assay: Abscisic acid 8′-hydroxylase CYP707A3 inhibition test; format: biochemical; conditions: CYP707A3 + NADPH-P450 reductase ATR1, substrate ABA, 30° C. 10 minutes; IC50 calculated from two concentrations
# T2 sequence (Q9FH76 1-463): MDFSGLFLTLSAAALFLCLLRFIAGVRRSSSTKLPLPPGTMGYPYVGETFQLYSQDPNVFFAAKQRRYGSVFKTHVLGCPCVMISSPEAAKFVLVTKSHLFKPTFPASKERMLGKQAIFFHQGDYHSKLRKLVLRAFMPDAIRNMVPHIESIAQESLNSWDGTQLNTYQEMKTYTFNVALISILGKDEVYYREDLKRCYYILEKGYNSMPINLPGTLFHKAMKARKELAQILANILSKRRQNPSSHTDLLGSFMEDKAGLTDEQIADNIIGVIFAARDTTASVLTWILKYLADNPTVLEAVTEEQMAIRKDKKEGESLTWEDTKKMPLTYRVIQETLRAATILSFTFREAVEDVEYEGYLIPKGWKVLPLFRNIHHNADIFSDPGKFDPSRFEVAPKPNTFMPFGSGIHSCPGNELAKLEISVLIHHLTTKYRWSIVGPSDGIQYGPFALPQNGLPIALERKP
# Description: In a 1.5 mL microtube, 10 μL of a solution of substrate 250 μM ABA in potassium/phosphate buffer (KPB), 5 μL of a solution of the sample in dimethylformamide, 435 μL of KPB and 40 μL of abscisic acid 8′-hydroxylase CYP707A3+NADPH-P450 reductase ATR1 were put and heated at 30° C. for 10 minutes. 10 μL of a solution of 5 mg/mL NADPH in KPB was added thereto thereby starting the enzyme reaction. The reaction was carried out at 30° C. for 10 minutes at a rotation speed of 1000 rpm, and 25 μL of an aqueous solution of 1 M sodium hydroxide was added thereto thereby terminating the reaction. The reaction solution was allowed to stand at 4° C. for 30 minutes and subsequently 50 μL of 1 M hydrochloric acid was added thereto to convert the enzyme metabolite to phaseic acid (PA). The enzyme reaction solution was subjected to an OASIS HLB cartridge (1 cc, 30 mg; washed with 1 mL of methanol (1% acetic acid) and equilibrated with 1 mL of water (1% acetic acid)) and washed with 1 mL of 10% methanol/water (1% acetic acid) thereby eluting phaseic acid with 1 mL of methanol (1% acetic acid). The eluate was concentrated under reduced pressure (toluene was added to azeotrope acetic acid), the obtained substance was dissolved in 50 μL of methanol. 20 μL of the solution was subjected to HPLC (column, YMC-Pack Hydrosphere C18 (6 mm inner diameter×150 mm length); flow rate 1 mL/min; detection 254 nm) analysis. The CYP707A3 inhibition rate of the samples was calculated in accordance with the following formula (3). Note that dimethylformamide was used for the control in place of the sample solution. Each sample was tested with two different concentrations to calculate the 50% inhibition concentration (IC50) based on the enzyme inhibition rates thereof The results are shown in Table 1.
# Enzyme inhibition rate (%)={1-(PA peak area of each sample/PA peak area of control)}×100 . . . (3)
# [3] = test system: seeds of thale cress (Arabidopsis thaliana, Col-0); assay: Thale cress seed germination inhibition test (2); format: in vivo; conditions: 120 hours after seed plantation (FIG. 3)
# Description: Seeds of thale cress (Arabidopsis thaliana, Col-0) were immersed in […] an aqueous solution of 70% ethanol for 30 minutes, subsequently in 500 μL of 100% ethanol for 1 minute, washed three times in 1 mL of distilled water, then immersed in distilled water and, in a dark place, verbalized at 4° C. for 3 days. A solution of the sample in methanol and a solution of ABA in methanol were put in a 1.5 mL microtube, and methanol was removed therefrom under reduced pressure. An aqueous solution of 0.5% agar (containing 1/2 MS medium inorganic salts) at 70° C. was added thereto, followed by stirring the resultant. The obtained solution was placed in a 96-well plate to provide the medium containing the sample. 20 to 30 vernalized seeds of thale cress were planted in each well and cultured at 22° C. under continuous light to monitor the number of seeds germinated over time. The germination rate was calculated in accordance with the following formula (1). Note that the medium prepared using methanol in the same manner as above was used as an untreated control and a germination rate of 100% was achieved 72 hours later from the seed plantation. Germination rates 72 hours later from the seed plantation are shown in FIG. 1 and initial growth conditions of thale cress 120 hours later are shown in FIG. 2.
# Germination rate (%)=Number of seeds germinated/Number of seeds planted×100 . . . (1) […]
Structure (SMILES),potency estimated from few doses [1],potency estimated from few doses [2],seed germination inhibition compared with (−) form of Comparative Example 1 [3]
"COCCOCCOCCOCC#Cc1ccc(/C=C(\C(O)C(C)(C)C)n2cncn2)cc1 (single isomer, unassigned) [Example 3 (+) Form, (E)-1-(4-(2,5,8,11-tetraoxatetradec-13-yn-14-yl)phenyl)-4,4-dimethyl-2-(1H-1,2,4-triazol-1-yl)pent-1-en-3-ol]",17 µM,7.7 µM,–
"CCCCOCCOCCOCC#Cc1cccc(/C=C(\C(O)C(C)(C)C)n2cncn2)c1 (single isomer, unassigned) [Example 2 (+) Form, (E)-1-(3-(3-(2-(2-butoxyethoxy)ethoxy)prop-1-yn-1-yl)phenyl)-4,4-dimethyl-2-(1H-1,2,4-triazol-1-yl)pent-1-en-3-ol]",0.12 µM,0.24 µM,–
"CCCCOCCOCCOCc1cn(-c2ccc(/C=C(\C(O)C(C)(C)C)n3cncn3)cc2)nn1 (single isomer, unassigned) [Comparative Example 1 (+) Form, 1-(4-(4-((2-(2-butoxyethoxy)ethoxy)methyl)-1H-1,2,3-triazol-1-yl)phenyl)-4,4-dimethyl-2-(1H-1,2,4-triazol-1-yl)pent-1-en-3-ol, reference compound]",1.3 µM,1.1 µM,–
"CCCCOCCOCCOCC#Cc1ccc(/C=C(\C(O)C(C)(C)C)n2cncn2)cc1 (single isomer, unassigned) [Example 4 (−) Form]",0.77 µM,0.2 µM,–
"COCCOCCOCCOCC#Cc1ccc(/C=C(\C(O)C(C)(C)C)n2cncn2)cc1 (single isomer, unassigned) [Example 3 (−) Form, (E)-1-(4-(2,5,8,11-tetraoxatetradec-13-yn-14-yl)phenyl)-4,4-dimethyl-2-(1H-1,2,4-triazol-1-yl)pent-1-en-3-ol]",8.6 µM,1.5 µM,–
"CCCCOCCOCCOCC#Cc1ccc(/C=C(\C(O)C(C)(C)C)n2cncn2)cc1 (single isomer, unassigned) [Example 4 (+) Form]",1.5 µM,1 µM,–
"CCCCOCCOCCOCc1cn(-c2ccc(/C=C(\C(O)C(C)(C)C)n3cncn3)cc2)nn1 (single isomer, unassigned) [Comparative Example 1 (−) Form, 1-(4-(4-((2-(2-butoxyethoxy)ethoxy)methyl)-1H-1,2,3-triazol-1-yl)phenyl)-4,4-dimethyl-2-(1H-1,2,4-triazol-1-yl)pent-1-en-3-ol, reference compound]",1.2 µM,0.054 µM,–
"CCCCOCCOCCOCC#Cc1cccc(/C=C(\C(O)C(C)(C)C)n2cncn2)c1 (single isomer, unassigned) [Example 2 (−) Form, (E)-1-(3-(3-(2-(2-butoxyethoxy)ethoxy)prop-1-yn-1-yl)phenyl)-4,4-dimethyl-2-(1H-1,2,4-triazol-1-yl)pent-1-en-3-ol]",0.062 µM,0.012 µM,can inhibit the seed germination even in lower concentrations
"COCCOCCOCCOCC#Cc1cccc(/C=C(\C(O)C(C)(C)C)n2cncn2)c1 (single isomer, unassigned) [Example 1 (+) Form, (E)-1-(3-(2,5,8,11-tetraoxatetradec-13-yn-14-yl)phenyl)-4,4-dimethyl-2-(1H-1,2,4-triazol-1-yl)pent-1-en-3-ol]",1.6 µM,1.2 µM,–
